Measured values published in ChEMBL document CHEMBL1127517 (J Med Chem, 1994).

What was measured:
[1] = target: T1, Sodium-dependent dopamine transporter (Rattus norvegicus, UniProt P23977); assay: Inhibitory constant towards reuptake of [125I]-12 from dopamine transporter in rat striatal membranes; format: cell membranes, Membrane
[2] = target: T1, Sodium-dependent dopamine transporter; assay: Inhibitory constant towards reuptake of [125I]-13 from dopamine transporter in rat striatal membranes; format: cell membranes, Membrane
Rattus norvegicus [3] = assay: Distribution of radio activity in tissues of unfasted male rats was measured as regional uptake at 120 min of time in ST/CB after intravenous administration; format: ADME, organism-based; settings: in vivo, 2 h
Rattus norvegicus [4] = assay: Distribution of radio activity in tissues of unfasted male rats was measured as regional uptake at 120 min of time in cerebellum after intravenous administration; format: ADME, organism-based; settings: in vivo, 2 h
Rattus norvegicus [5] = assay: Distribution of radio activity in tissues of unfasted male rats was measured alungblood after intravenous administration; format: ADME, organism-based, Lung; settings: in vivo
Rattus norvegicus [6] = assay: Distribution of radio activity in tissues of unfasted male rats was measured as at 2 min of time in skin after intravenous administration; format: ADME, organism-based; settings: in vivo
Rattus norvegicus [7] = assay: Distribution of radio activity in tissues of unfasted male rats was measured at 120 min of time in blood after intravenous administration; format: ADME, organism-based; settings: in vivo, 2 h
Rattus norvegicus [8] = assay: Distribution of radio activity in tissues of unfasted male rats was measured at 120 min of time in brain after intravenous administration; format: ADME, organism-based; settings: in vivo, 2 h
Rattus norvegicus [9] = assay: Distribution of radio activity in tissues of unfasted male rats was measured at 120 min of time in heart after intravenous administration; format: ADME, organism-based; settings: in vivo, 2 h
Rattus norvegicus [10] = assay: Distribution of radio activity in tissues of unfasted male rats was measured at 120 min of time in kidney after intravenous administration; format: ADME, organism-based; settings: in vivo, 2 h
Rattus norvegicus [11] = assay: Distribution of radio activity in tissues of unfasted male rats was measured at 120 min of time in liver after intravenous administration; format: ADME, organism-based; settings: in vivo, 2 h
Rattus norvegicus [12] = assay: Distribution of radio activity in tissues of unfasted male rats was measured at 120 min of time in lung after intravenous administration.; format: ADME, organism-based; settings: in vivo, 2 h
Rattus norvegicus [13] = assay: Distribution of radio activity in tissues of unfasted male rats was measured at 120 min of time in muscle after intravenous administration; format: ADME, organism-based, Muscle tissue; settings: in vivo, 2 h
Rattus norvegicus [14] = assay: Distribution of radio activity in tissues of unfasted male rats was measured at 120 min of time in skin after intravenous administration; format: ADME, organism-based; settings: in vivo, 2 h
Rattus norvegicus [15] = assay: Distribution of radio activity in tissues of unfasted male rats was measured at 120 min of time in spleen after intravenous administration; format: ADME, organism-based; settings: in vivo, 2 h
Rattus norvegicus [16] = assay: Distribution of radio activity in tissues of unfasted male rats was measured at 120 min of time in thyroid after intravenous administration; format: ADME, organism-based, Thyroid gland; settings: in vivo, 2 h
Rattus norvegicus [17] = assay: Distribution of radio activity in tissues of unfasted male rats was measured at 2 min of time in blood after intravenous administration; format: ADME, organism-based; settings: in vivo
Rattus norvegicus [18] = assay: Distribution of radio activity in tissues of unfasted male rats was measured at 2 min of time in brain after intravenous administration; format: ADME, organism-based; settings: in vivo
Rattus norvegicus [19] = assay: Distribution of radio activity in tissues of unfasted male rats was measured at 2 min of time in heart after intravenous administration; format: ADME, organism-based; settings: in vivo
Rattus norvegicus [20] = assay: Distribution of radio activity in tissues of unfasted male rats was measured at 2 min of time in kidney after intravenous administration; format: ADME, organism-based; settings: in vivo
Rattus norvegicus [21] = assay: Distribution of radio activity in tissues of unfasted male rats was measured at 2 min of time in muscle after intravenous administration; format: ADME, organism-based, Muscle tissue; settings: in vivo
Rattus norvegicus [22] = assay: Distribution of radio activity in tissues of unfasted male rats was measured as regional uptake at 60 min of time in cortex after intravenous administration; format: ADME, organism-based; settings: in vivo, 1 h
Rattus norvegicus [23] = assay: Distribution of radio activity in tissues of unfasted male rats was measured as regional uptake at 60 min of time in hippocampus after intravenous administration; format: ADME, organism-based; settings: in vivo, 1 h
Rattus norvegicus [24] = assay: Distribution of radio activity in tissues of unfasted male rats was measured as regional uptake at 60 min of time in striatum after intravenous administration; format: ADME, organism-based; settings: in vivo, 1 h
Rattus norvegicus [25] = assay: Distribution of radio activity in tissues of unfasted male rats was measured at 30 min of time in lung after intravenous administration; format: ADME, organism-based; settings: in vivo, 0.5 h
Rattus norvegicus [26] = assay: Distribution of radio activity in tissues of unfasted male rats was measured at 30 min of time in muscle after intravenous administration; format: ADME, organism-based, Muscle tissue; settings: in vivo, 0.5 h
Rattus norvegicus [27] = assay: Distribution of radio activity in tissues of unfasted male rats was measured at 30 min of time in skin after intravenous administration; format: ADME, organism-based; settings: in vivo, 0.5 h
Rattus norvegicus [28] = assay: Distribution of radio activity in tissues of unfasted male rats was measured at 30 min of time in kidney after intravenous administration; format: ADME, organism-based; settings: in vivo, 0.5 h
Rattus norvegicus [29] = assay: Distribution of radio activity in tissues of unfasted male rats was measured at 30 min of time in liver after intravenous administration; format: ADME, organism-based; settings: in vivo, 0.5 h
Rattus norvegicus [30] = assay: Distribution of radio activity in tissues of unfasted male rats was measured at 30 min of time in spleen after intravenous administration; format: ADME, organism-based; settings: in vivo, 0.5 h
Rattus norvegicus [31] = assay: Distribution of radio activity in tissues of unfasted male rats was measured at 30 min of time in thyroid after intravenous administration; format: ADME, organism-based, Thyroid gland; settings: in vivo, 0.5 h

T1 sequence (P23977 whole entry): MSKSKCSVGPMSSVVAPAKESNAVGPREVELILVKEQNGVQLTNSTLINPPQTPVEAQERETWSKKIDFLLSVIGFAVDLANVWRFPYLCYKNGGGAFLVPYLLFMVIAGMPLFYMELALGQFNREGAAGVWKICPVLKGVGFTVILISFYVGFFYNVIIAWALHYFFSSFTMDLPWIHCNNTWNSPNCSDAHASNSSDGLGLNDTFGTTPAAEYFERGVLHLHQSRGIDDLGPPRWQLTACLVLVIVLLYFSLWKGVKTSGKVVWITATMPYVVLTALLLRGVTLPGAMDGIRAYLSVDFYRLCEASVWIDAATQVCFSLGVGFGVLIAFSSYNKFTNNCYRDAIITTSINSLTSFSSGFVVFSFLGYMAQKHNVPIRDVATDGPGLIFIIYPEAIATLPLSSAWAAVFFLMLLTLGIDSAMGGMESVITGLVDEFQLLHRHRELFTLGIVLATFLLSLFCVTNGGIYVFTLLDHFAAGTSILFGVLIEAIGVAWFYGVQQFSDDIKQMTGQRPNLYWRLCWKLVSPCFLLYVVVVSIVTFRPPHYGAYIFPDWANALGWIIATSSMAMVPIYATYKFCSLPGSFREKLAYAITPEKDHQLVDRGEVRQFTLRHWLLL

## COC(=O)C1C(c2ccc(Cl)cc2)CC2CCC1N2C/C=C\I (stereo unspecified)
[1]
  Ki: 1.27 nM
[2]
  Ki: 6.3 nM
Rattus norvegicus [3]
  Dose/g: 1.9%
Rattus norvegicus [4]
  Dose/g: 0.02%
Rattus norvegicus [5]
  Injected dose/organ: 1.23%
Rattus norvegicus [6]
  Injected dose/organ: 7.27%
Rattus norvegicus [7]
  Injected dose/organ: 5.16%
Rattus norvegicus [8]
  Injected dose/organ: 0.04%
Rattus norvegicus [9]
  Injected dose/organ: 0.11%
Rattus norvegicus [10]
  Injected dose/organ: 0.46%
Rattus norvegicus [11]
  Injected dose/organ: 1.28%
Rattus norvegicus [12]
  Injected dose/organ: 0.4%
Rattus norvegicus [13]
  Injected dose/organ: 9.22%
Rattus norvegicus [14]
  Injected dose/organ: 19.3%
Rattus norvegicus [15]
  Injected dose/organ: 0.09%
Rattus norvegicus [16]
  Injected dose/organ: 1.29%
Rattus norvegicus [17]
  Injected dose/organ: 5.01%
Rattus norvegicus [18]
  Injected dose/organ: 1.27%
Rattus norvegicus [19]
  Injected dose/organ: 0.85%
Rattus norvegicus [20]
  Injected dose/organ: 2.65%
Rattus norvegicus [21]
  Injected dose/organ: 29.15%
Rattus norvegicus [22]
  Dose/g: 0.04%
Rattus norvegicus [23]
  Dose/g: 0.04%
Rattus norvegicus [24]
  Dose/g: 0.11%
Rattus norvegicus [25]
  Injected dose/organ: 0.78%
Rattus norvegicus [26]
  Injected dose/organ: 17.43%
Rattus norvegicus [27]
  Injected dose/organ: 26.73%
Rattus norvegicus [28]
  Injected dose/organ: 0.78%
Rattus norvegicus [29]
  Injected dose/organ: 2.78%
Rattus norvegicus [30]
  Injected dose/organ: 0.19%
Rattus norvegicus [31]
  Injected dose/organ: 1.02%
